From patent US9499550B2 (BRISTOL-MYERS SQUIBB COMPANY, priority 2012, dated 2016)
Like-named read-outs stand apart in the source and are kept apart here.

Key:
[1] = test system: HCV genotype 1b (Con1) replicon in HUH-7 cells; experiment: HCV replicon luciferase reporter assay, genotype 1b; type: cell-based; details: Hepatitis C virus, Huh-7, 72 h, 3 days incubation
Summary of the method: (§1)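 Replicon inhibition for both genotypes was measured as Renilla luciferase signal (EnduRen, 7.5 μM final, 2 h) after 3-day, 37° C exposure of replicon-bearing HUH-7 cells in 4% FCS DMEM, 0.5% DMSO. The 1b construct carries S1179I; the 1a H77 construct carries P1496L and S2204I. Twenty-point, 3-fold dilutions were fitted four-parametrically for EC50, and CC50 was taken from multiplexed Cell Titer-Blue.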

[2] = test system: HCV genotype 1a (H77 strain) replicon in HUH-7 cells; experiment: HCV replicon luciferase reporter assay, genotype 1a; type: cell-based; details: Hepatitis C virus, Huh-7, 72 h, 3 days incubation
Summary of the method: as §1

[3] = HCV genotype 1b replicon luciferase assay, range class, read-out: LE_1b (EC50, range)
[4] = HCV genotype 1a replicon luciferase assay, range class, read-out: LE_1a (EC50, range)
[5] = HCV genotype 1b replicon luciferase, read-out: LE_1b (EC50, range)
[6] = HCV genotype 1a replicon luciferase, read-out: LE_1a (EC50, range)

Structure (SMILES)	EC50 [1, 3]	EC50 [2, 4]	EC50 ([1]; HCV genotype 1b replicon luciferase, read-out: LE_1b (EC50))	EC50 [1, 5]	EC50 ([2]; HCV genotype 1a replicon luciferase, read-out: LE_1a (EC50))	EC50 [2, 6]
COc1cc(F)cc2c(O[C@@H]3C[C@H]4C(=O)N[C@]5(C(=O)NS(=O)(=O)C6CC6)C[C@H]5/C=C\CC[C@H](C)C[C@@H](C)[C@H](NC(=O)O[C@H](C)C(F)(F)F)C(=O)N4C3)nccc12 [Compound 3169, (R)-1,1,1-trifluoropropan-2-yl ((2R,6S,7R,9S,13aS,14aR,16aS,Z)-14a-((cyclopropylsulfonyl)carbamoyl)-2-((7-fluoro-5-methoxyisoquinolin-1-yl)oxy)-7,9-dimethyl-5,16-dioxo-1,2,3,5,6,7,8,9,10,11,13a,14,14a,15,16,16a-hexadecahydrocyclopropa[e]pyrrolo[1,2-a][1,4]diazacyclopentadecin-6-yl)carbamate]	< 5.46 nM	4.82 to 103 nM				
CCCOc1cnc(O[C@@H]2C[C@H]3C(=O)N[C@]4(C(=O)NS(=O)(=O)C5(C)CC5)C[C@H]4/C=C\CC[C@H](C)C[C@@H](C)[C@H](NC(=O)NC(C)(C)C(F)(F)F)C(=O)N3C2)c2ccccc12 [Compound 5086, (2R,6S,7R,9S,13aS,14aR,16aS,Z)-7,9-dimethyl-N-((1-methylcyclopropyl)sulfonyl)-5,16-dioxo-2-((4-propoxyisoquinolin-1-yl)oxy)-6-(3-(1,1,1-trifluoro-2-methylpropan-2-yl)ureido)-1,2,3,5,6,7,8,9,10,11,13a,14,14a,15,16,16a-hexadecahydrocyclopropa[e]pyrrolo[1,2-a][1,4]diazacyclopentadecine-14a-carboxamide]			155 nM	> 87.4 nM	411 nM	> 87.4 nM
COc1cc(F)cc2c(O[C@@H]3C[C@H]4C(=O)N[C@]5(C(=O)NS(=O)(=O)C6(C)CC6)C[C@H]5/C=C\CC[C@@H](C)C[C@@H](C)[C@H](NC(=O)O[C@@H]5C[C@@H]6C[C@@H]6C5)C(=O)N4C3)nccc12 [Compound 3160, (1R,3r,5S)-bicyclo[3.1.0]hexan-3-yl((2R,6S,7R,9R,13aS,14aR,16aS,Z)-2-((7-fluoro-5-methoxyisoquinolin-1-yl)oxy)-7,9-dimethyl-14a-(((1-methylcyclopropyl)sulfonyl)carbamoyl)-5,16-dioxo-1,2,3,5,6,7,8,9,10,11,13a,14,14a,15,16,16a-hexadecahydrocyclopropa[e]pyrrolo[1,2-a][1,4]diazacyclopentadecin-6-yl)carbamate]	< 5.46 nM	< 5.46 nM				
CC[C@@H]1C[C@H](C)CC/C=C\[C@@H]2C[C@@]2(C(=O)NS(=O)(=O)C2(C)CC2)NC(=O)[C@@H]2C[C@@H](Oc3nc4cc(OC)ccc4nc3C(C)C)CN2C(=O)[C@H]1NC(=O)OC(C)(C)C [Compound 4250, tert-butyl ((2R,6S,7R,9R,13aS,14aR,16aS,Z)-7-ethyl-2-((3-isopropyl-7-methoxyquinoxalin-2-yl)oxy)-9-methyl-14a-(((1-methylcyclopropyl)sulfonyl)carbamoyl)-5,16-dioxo-1,2,3,5,6,7,8,9,10,11,13a,14,14a,15,16,16a-hexadecahydrocyclopropa[e]pyrrolo[1,2-a][1,4]diazacyclopentadecin-6-yl)carbamate]				1.01 to 5 nM		1.01 to 5 nM
C=COc1cnc(O[C@@H]2C[C@H]3C(=O)N[C@]4(C(=O)NS(=O)(=O)C5(C)CC5)C[C@H]4/C=C\CC[C@@H](C)C[C@@H](C)[C@H](NC(=O)OC(C)(C)C)C(=O)N3C2)c2ccccc12 [Compound 4134, tert-butyl (2R,6S,7R,9R,13aS,14aR,16aS,Z)-7,9-dimethyl-14a-(1-methylcyclopropylsulfonylcarbamoyl)-5,16-dioxo-2-(4-(vinyloxy)isoquinolin-1-yloxy)-1,2,3,5,6,7,8,9,10,11,13a,14,14a,15,16,16a-hexadecahydrocyclopropa[e]pyrrolo[1,2-a][1,4]diazacyclopentadecin-6-ylcarbamate]				< 5.46 nM		< 5.46 nM
